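Where inhibition never reached the appropriate level, the endpoint shown equals the highest concentration tested. Otherwise, values were interpolated linearly from a five-concentration, 48-hour dose response in 96-well plates. Definition used: TGI = concentration required for complete inhibition of growth.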
Tests used:
Experiment in all cases: NCI anticancer screen, dose series, 48 h
RXF 393 renal = test system: RXF 393 renal
RPMI-8226 leukemia = test system: RPMI-8226 leukemia
COLO 205 colon = test system: COLO 205 colon
SK-MEL-28 melanoma = test system: SK-MEL-28 melanoma
HT29 colon = test system: HT29 colon
SR leukemia = test system: SR leukemia
SNB-75 CNS = test system: SNB-75 CNS
SNB-19 CNS = test system: SNB-19 CNS
HOP-62 NSCLC = test system: HOP-62 NSCLC
LOX IMVI melanoma = test system: LOX IMVI melanoma
UO-31 renal = test system: UO-31 renal

Compound	TGI (RXF 393 renal)	TGI (RPMI-8226 leukemia)	TGI (COLO 205 colon)	TGI (SK-MEL-28 melanoma)	TGI (HT29 colon)	TGI (SR leukemia)	TGI (SNB-75 CNS)	TGI (SNB-19 CNS)	TGI (HOP-62 NSCLC)	TGI (LOX IMVI melanoma)	TGI (UO-31 renal)
CC1(C)OC(=O)N(c2ccccc2)C12C=Cc1cc([N+](=O)[O-])ccc1O2 (stereo not drawn)	> 100 µM	> 100 µM	> 100 µM	> 100 µM	> 100 µM	75.3 µM	> 100 µM	> 100 µM	> 100 µM	> 100 µM	> 100 µM
N#Cc1c(-c2ccccc2)[nH]c2ccc(Cl)cc2c1=O	49 µM	> 100 µM	> 100 µM	> 100 µM	> 100 µM	> 100 µM	> 100 µM	59.9 µM	74 µM	> 100 µM	44 µM
COC(=O)CC1N=C(NC#N)N(CCc2c[nH]c3ccccc23)C1=O (stereo not drawn)	> 100 µM	> 100 µM	> 100 µM	> 100 µM	> 100 µM	> 100 µM	> 100 µM	> 100 µM	> 100 µM	> 100 µM	> 100 µM
C(/C=C/Nc1ccc(Oc2ccccc2)cc1)=Nc1ccc(Oc2ccccc2)cc1	39.6 µM	54.1 µM	43.6 µM	30.3 µM	29.7 µM	39.7 µM	31.9 µM	31.3 µM	38 µM	28.2 µM	35 µM
Nc1nc(-c2ccccc2)cc(-c2ccc(OCc3ccccc3)cc2O)n1	76.8 µM	60.9 µM	> 100 µM	> 100 µM	> 100 µM	> 100 µM	> 100 µM	> 100 µM	> 100 µM	> 100 µM	> 100 µM
CN(C)CC1CCCC(CN(C)C)C1OC(=O)c1ccccc1 (stereo not drawn)	> 100 µM	> 100 µM	> 100 µM	> 100 µM	> 100 µM	> 100 µM	> 100 µM		> 100 µM	> 100 µM	> 100 µM
Cc1ccc2c(c1)CC1(Cc3ccccc3C1=O)C2=O (stereo not drawn)	> 100 µM	> 100 µM	> 100 µM	> 100 µM	> 100 µM	> 100 µM	> 100 µM	> 100 µM	> 100 µM	> 100 µM	> 100 µM
O=C1c2ccccc2C(=O)N1CCCCNOCCCN1C(=O)c2ccccc2C1=O	> 100 µM	> 100 µM	> 100 µM	> 100 µM	> 100 µM	> 100 µM	> 100 µM	> 100 µM	> 100 µM	> 100 µM	> 100 µM
CCOC(C)O[C@H]1C(=O)OCC1(C)C (stereo partly drawn)	> 100 µM	> 100 µM	> 100 µM	> 100 µM	> 100 µM	> 100 µM	> 100 µM	> 100 µM	> 100 µM	> 100 µM	> 100 µM
O=c1cc(-c2ccc(Oc3ccccc3)cc2)[nH]c2cc3c(cc12)OCO3	> 100 µM	> 100 µM	> 100 µM	> 100 µM	> 100 µM	> 100 µM	> 100 µM	> 100 µM	> 100 µM	> 100 µM	> 100 µM
CCOC(=O)c1ccc(NCc2ccc3oc(=O)c(-c4ccccc4)nc3c2)cc1	87.4 µM		62.6 µM	87.3 µM	> 100 µM	> 100 µM	> 100 µM	> 100 µM	> 100 µM	> 100 µM	> 100 µM
Nc1nc([O-])c2c(n1)[n+](C1OC(CO)C(O)C1O)cn2CCO (stereo not drawn)	> 100 µM	> 100 µM	> 100 µM	> 100 µM	> 100 µM	> 100 µM	> 100 µM		> 100 µM	> 100 µM	> 100 µM
CSc1cc(Cl)c(C)cc1S(=O)(=O)NC(=O)NNc1cccc(C(F)(F)F)n1	> 100 µM		> 100 µM	> 100 µM	> 100 µM	> 100 µM	> 100 µM	> 100 µM	> 100 µM	> 100 µM	
O=[N+]([O-])c1ccc(S(=O)(=O)n2c3ccc(Br)cc3c3nc4ccccc4nc32)cc1	> 100 µM	> 100 µM	> 100 µM	> 100 µM	> 100 µM	> 100 µM	> 100 µM	> 100 µM	> 100 µM	> 100 µM	> 100 µM
N#C[C@@H](c1ccccn1)c1ncccc1[N+](=O)[O-]	> 100 µM	> 100 µM	> 100 µM	> 100 µM	> 100 µM	> 100 µM	> 100 µM	> 100 µM	> 100 µM	> 100 µM	> 100 µM
CCOC(=O)CC(C)C1(C(=O)OCC)CCCCC1=O (stereo not drawn)	> 100 µM	60.6 µM	> 100 µM	> 100 µM	> 100 µM	55.4 µM	> 100 µM	> 100 µM	> 100 µM	> 100 µM	> 100 µM

Compound	TGI (RXF 393 renal)	TGI (RPMI-8226 leukemia)	TGI (COLO 205 colon)	TGI (SK-MEL-28 melanoma)	TGI (HT29 colon)	TGI (SR leukemia)	TGI (SNB-75 CNS)	TGI (SNB-19 CNS)	TGI (HOP-62 NSCLC)	TGI (LOX IMVI melanoma)	TGI (UO-31 renal)
CN=C(SC)N(C)c1nc(=[N+](C)C)ss1	> 100 µM			> 100 µM	> 100 µM	> 100 µM	> 100 µM	> 100 µM	> 100 µM	> 100 µM	> 100 µM
C=C(C)[C@H]1Cc2c(ccc3c2O[C@@H]2COc4cc(OC)c(OC)cc4[C@@H]2C3=O)O1	6.41 µM	8.84 µM	0.539 µM	81.4 µM	4.09 µM	22.2 µM	60.5 µM	> 100 µM	40.5 µM	8.04 µM	58.8 µM
Clc1ccc(-c2cc3nc4ccccc4nc3o2)cc1	90 µM	> 100 µM	> 100 µM	> 100 µM	> 100 µM	> 100 µM	48.3 µM	> 100 µM		> 100 µM	> 100 µM
CCN1CCN(c2nc3ccccc3c3c2CCOc2ccccc2-3)CC1	> 65.1 µM	50 µM	37.2 µM	32.4 µM	> 51.5 µM	24.8 µM	> 62.6 µM	> 75.1 µM	> 100 µM	34.1 µM	> 66 µM
O=C1c2ccsc2C(=O)c2sc(CO)cc21	1.9 µM		1.53 µM	0.0614 µM	0.444 µM	> 10.8 µM	0.104 µM	0.218 µM	0.325 µM	0.0491 µM	0.317 µM
O=C(/C=C/c1ccc2ccccc2c1)NCc1ccc(C(=O)NCCc2ccccc2)cc1	> 100 µM	> 100 µM	> 100 µM	> 100 µM		> 100 µM	> 100 µM	> 100 µM	> 100 µM	> 100 µM	> 100 µM
COc1cc(-c2nc3ccccn3c2/N=C/c2cc(Br)cc(Br)c2O)ccc1O	> 100 µM	> 100 µM	74.3 µM	40.7 µM	57.1 µM	62.7 µM	66.6 µM	75.6 µM	52.5 µM	64.9 µM	30.6 µM
N#Cc1[nH]c(=O)n(-c2ccccc2)c1N	> 10 µM	> 10 µM	> 10 µM	> 10 µM	> 10 µM	> 10 µM	> 10 µM	> 10 µM	> 10 µM	1.58 µM	> 10 µM
CCO/C=N\C1=C(C#N)SC2=N/C(=C\c3ccc(OC)cc3)C(=O)N21	> 100 µM	> 100 µM	> 100 µM	> 100 µM	> 100 µM	> 100 µM	46.6 µM	> 100 µM		> 100 µM	> 100 µM
COC(=O)c1cc2c(cc1CC(Cc1ccc3c(c1)CCCC3)C(=O)OC)CCCC2 (stereo not drawn)	72.9 µM	91.4 µM	> 100 µM	> 100 µM	> 100 µM	> 100 µM	> 100 µM	> 100 µM	> 100 µM	> 100 µM	> 100 µM
O=C(NCP(=O)(c1ccccc1)c1ccccc1)OCc1ccccc1	> 100 µM	> 100 µM	> 100 µM	> 100 µM	> 100 µM	> 100 µM	> 100 µM	> 100 µM	> 100 µM	> 100 µM	> 100 µM
CC(=O)[C@@H](C)C(=O)N1C(=O)OC[C@@]12[C@@H]1CC[C@@H](C1)C2(C)C	> 100 µM	> 100 µM	> 100 µM	> 100 µM	> 100 µM	> 100 µM	> 100 µM	> 100 µM	> 100 µM	> 100 µM	> 100 µM
CN(C(=O)Cc1cccc(N=C=S)c1)[C@H]1CCCC[C@@H]1N1CCCC1	25.9 µM	32.3 µM	25.2 µM	32.8 µM	26.4 µM	29.2 µM	27.8 µM	47.6 µM	33.2 µM	31.3 µM	29.3 µM
CCOC(=O)c1cc2c3ccn(Cc4ccccc4)c3c3c(C)[nH]oc3c2n1	> 100 µM	> 100 µM	> 100 µM	> 100 µM		> 100 µM	> 100 µM	> 100 µM	> 100 µM	> 100 µM	> 100 µM
C1=Cc2cc3c(c4nccc(c24)N1)OCO3	5.64 µM	> 65.9 µM	23 µM	> 71 µM		5.78 µM	28.7 µM	> 34.7 µM	> 82.4 µM	> 61.1 µM	> 48.8 µM
